What was measured:
Assay in all cases: relative viability (nuclei count vs DMSO), 5 days (fraction); higher = more cells survive
Sulindac + Linsitinib = compound: CC1=C(CC(=O)O)c2cc(F)ccc2/C1=C\c1ccc([S+](C)[O-])cc1 [Sulindac] + C[C@]1(O)C[C@@H](c2nc(-c3ccc4ccc(-c5ccccc5)nc4c3)c3c(N)nccn32)C1 [Linsitinib] (partner 1 µM)
Summary of the method: (§1)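 Lung cancer cell lines in 1536-well plates were dosed by pin tool the day after seeding, either with one drug alone or with a fixed anchor-drug dose plus five library-drug doses (not always all listed) in √10 steps. After 5 days, cells were fixed and their nuclei stained in one step (final 0.05% Triton X-100, 1% formaldehyde, 1 ug/ml Hoechst), then counted on 4× images. Relative viability is the nuclei count in treated wells divided by that in vehicle wells. Values are medians of duplicate plates.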

[1] = compound: CN[C@@H]1C[C@H]2O[C@@](C)([C@@H]1OC)n1c3ccccc3c3c4c(c5c6ccccc6n2c5c31)C(=O)NC4 [Staurosporine] + CC1(C)CCC(c2ccc(Cl)cc2)=C(CN2CCN(c3ccc(C(=O)NS(=O)(=O)c4ccc(N[C@H](CCN5CCOCC5)CSc5ccccc5)c(S(=O)(=O)C(F)(F)F)c4)cc3)CC2)C1 [Navitoclax] (partner 0.5 µM)
Summary of the method: as §1

[2] = compound: O=c1[nH]cc(F)c(=O)[nH]1 [5-Fluorouracil] + COc1cc2c(Oc3ccc(NC(=O)C4(C(=O)Nc5ccc(F)cc5)CC4)cc3F)ccnc2cc1OCCCN1CCOCC1 [Foretinib] (partner 0.25 µM)
Summary of the method: as §1

[3] = compound: O=c1[nH]cc(F)c(=O)[nH]1 [5-Fluorouracil] + Cc1nc(NC(=O)N2CCC[C@H]2C(N)=O)sc1-c1ccnc(C(C)(C)C(F)(F)F)c1 [Alpelisib] (partner 2 µM)
Summary of the method: as §1

Row | Cell Line | relative viability (Sulindac + Linsitinib; first compound 0.08 µM) | relative viability (Sulindac + Linsitinib; first compound 0.253 µM) | relative viability (Sulindac + Linsitinib; first compound 0.8 µM) | relative viability (Sulindac + Linsitinib; first compound 2.53 µM) | relative viability (Sulindac + Linsitinib; first compound 8 µM) | relative viability ([1]; first compound 0.005 µM) | relative viability ([1]; first compound 0.01581 µM) | relative viability ([1]; first compound 0.05 µM) | relative viability ([1]; first compound 0.1581 µM) | relative viability ([1]; first compound 0.5 µM) | relative viability ([2]; first compound 0.02 µM) | relative viability ([2]; first compound 0.2 µM) | relative viability ([2]; first compound 0.6325 µM) | relative viability ([2]; first compound 2 µM) | relative viability ([3]; first compound 0.02 µM) | relative viability ([3]; first compound 0.2 µM) | relative viability ([3]; first compound 0.6325 µM) | relative viability ([3]; first compound 2 µM)
1 | NCI-H1651 | 1.1 | 1.01 | 0.777 | 0.955 | 1.27 | 0.897 | 0.559 | 0.305 | 0.112 | 0.0765 | 0.797 | 0.835 | 0.537 | 0.509 | 1.01 | 0.672 | 0.552 | 0.504
2 | NCI-H1993 | 0.741 | 0.674 | 0.789 | 0.735 | 0.82 | 1.04 | 0.645 | 0.54 | 0.44 | 0.435 | 0.741 | 0.728 | 0.706 | 0.667 | 0.687 | 0.569 | 0.608 | 0.698
3 | COR-L23 | 1.18 | 0.925 |  | 0.906 | 0.999 | 0.511 | 0.3 | 0.17 | 0.0578 | 0.0582 | 0.982 | 0.886 | 0.522 | 0.289 | 0.862 | 0.661 | 0.491 | 0.209
4 | LOU-NH91 | 0.877 | 0.916 | 0.858 | 0.933 | 1.09 | 0.725 | 0.455 | 0.367 | 0.269 | 0.249 | 0.966 | 0.995 | 0.731 | 0.315 | 0.679 | 0.706 | 0.57 | 0.466
5 | NCI-H520 | 1.24 | 1.1 | 0.739 | 0.997 | 1.33 | 1.15 | 0.935 | 0.408 | 0.204 | 0.13 | 0.555 | 0.697 | 0.641 | 0.563 | 0.537 | 0.975 | 0.717 | 0.383
6 | NCI-H1975 | 1.14 | 1.03 |  | 1.07 | 1.05 | 0.611 | 0.297 | 0.286 | 0.215 | 0.132 | 0.999 | 0.898 | 0.469 | 0.259 | 0.57 | 0.723 | 0.465 | 0.293
7 | NCI-H1299 | 1.14 | 1.18 | 0.898 | 1.02 | 1.01 | 1.06 | 0.739 | 0.459 | 0.239 | 0.199 | 1.14 | 1.12 | 1.08 | 0.908 | 1.11 | 1.14 | 0.953 | 0.763
8 | NCI-H1755 | 1.16 | 1.07 | 0.906 | 1 | 1.05 | 1.01 | 0.633 | 0.253 | 0.185 | 0.138 | 0.909 | 0.854 | 0.365 | 0.319 | 0.896 | 0.74 | 0.294 | 0.259

— the supplement of paper PMC10307832
